The record followed here is patent US7968542B2, “Thiophene compounds and thrombopoietin receptor activators” (Nissan Chemical Industries, Ltd., priority 2005, dated 2011).

In the first experiment the test system is Human bone marrow CD34+ cells. Put plainly: Megakaryocyte colony stimulating activity (megakaryocyte colony forming method). The experiment is classed as cell-based. Conditions: drug concentration 0.1 μg/mL, 11 days. The method, then:
The action of the compounds of Synthetic Examples 1 to 43 of the present invention and Reference Synthetic Examples 29 and 30 on the proliferation, differentiation and maturation of megakaryocyte cells was measured by the megakaryocyte colony forming method using human bone marrow cells. Human bone marrow CD34^+ cells (Cambrex Bio Science Walkersville) were incubated on 2-well chamber slide for 11 days in a CO2 incubator (5% CO2, 37° C.) using MegaCult™-C (StemCell Technologies) containing 0.1% (v/v) of the compounds of Synthetic Examples dissolved in dimethyl sulfoxide. After dehydration and fixation, the cells were stained with an anti-glycoprotein IIb/IIIa antibody in accordance with the instruction by the manufacturer. The colonies consisting of at least 8 stained megakaryocyte cells in each well were counted under a microscope. The megakaryocyte colony counts in at least 2 wells were averaged.
For the compound `CC(=NNC(=O)c1ccc(C(=O)NCc2ccnn2C)s1)c1csc(-c2ccc(Cl)c(Cl)c2)c1O` [Synthetic Ex. 32, 5-{1-[5-(3,4-dichlorophenyl)-4-hydroxythiophen-3-yl]ethylidenehydrazinocarbonyl}thiophene-2-carboxylic acid (1-methyl-1H-pyrazol-5-ylmethyl)amide], the Megakaryocyte colony count is 55. Same read-out and setting: the value for `CC(=NNC(=O)c1ccc(C(=O)NCc2cc(C)on2)s1)c1csc(-c2ccc(Cl)c(Cl)c2)c1O` [Synthetic Ex. 33, 5-{1-[5-(3,4-dichlorophenyl)-4-hydroxythiophen-3-yl]ethylidenehydrazinocarbonyl}thiophene-2-carboxylic acid (5-methylisoxazol-3-ylmethyl)amide] was 53; that for `CC(=NNC(=O)c1ccc(C(=O)NCc2cnc(C)cn2)s1)c1csc(-c2ccc(Cl)c(Cl)c2)c1O` [Synthetic Ex. 34, 5-{1-[5-(3,4-dichlorophenyl)-4-hydroxythiophen-3-yl]ethylidenehydrazinocarbonyl}thiophene-2-carboxylic acid (5-methylpyrazin-2-ylmethyl)amide] was 50; that for `CC(=NNC(=O)c1ccc(C(=O)NCc2ccno2)s1)c1csc(-c2ccc(Cl)c(Cl)c2)c1O` [Synthetic Ex. 35, 5-{1-[5-(3,4-dichlorophenyl)-4-hydroxythiophen-3-yl]ethylidenehydrazinocarbonyl}thiophene-2-carboxylic acid (isoxazol-5-ylmethyl)amide] was 135. `COc1cc(CNC(=O)c2ccc(C(=O)NN=C(C)c3csc(-c4ccc(Cl)c(Cl)c4)c3O)s2)on1` [Synthetic Ex. 36, 5-{1-[5-(3,4-dichlorophenyl)-4-hydroxythiophen-3-yl]ethylidenehydrazinocarbonyl}thiophene-2-carboxylic acid (3-methoxyisoxazol-5-ylmethyl)amide] returned a Megakaryocyte colony count of 102. For `CC(=NNC(=O)c1ccc(C(=O)NCc2cc(C)n(C)n2)s1)c1csc(-c2ccc(Cl)c(Cl)c2)c1O` [Synthetic Ex. 37, 5-{1-[5-(3,4-dichlorophenyl)-4-hydroxythiophen-3-yl]ethylidenehydrazinocarbonyl}thiophene-2-carboxylic acid (1,5-dimethyl-1H-pyrazol-3-ylmethyl)amide], the Megakaryocyte colony count was 81. On the same count and under the same terms, the value for `CC(=NNC(=O)c1ccc(C(=O)NCc2cnccn2)s1)c1csc(-c2ccc(Cl)c(Cl)c2)c1O` [Synthetic Ex. 38, 5-{1-[5-(3,4-dichlorophenyl)-4-hydroxythiophen-3-yl]ethylidenehydrazinocarbonyl}thiophene-2-carboxylic acid (pyrazin-2-ylmethyl)amide] was 66.

`CC(=NNC(=O)c1ccc(C(=O)NCc2cc[n+]([O-])cc2)s1)c1csc(-c2ccc(Cl)c(Cl)c2)c1O` [Synthetic Ex. 39, 4-[{5-(2-[1-{5-(3,4-dichlorophenyl)-4-hydroxythiophen-3-yl}ethylidene]hydrazinocarbonyl)thiophene-2-carboxamido}methyl]pyridine 1-oxide] gave a Megakaryocyte colony count of 86.

`CC(=NNC(=O)c1ccc(C(=O)NCCCc2ccncc2)s1)c1csc(-c2ccc(Cl)c(Cl)c2)c1O` [Synthetic Ex. 40, 5-{1-[5-(3,4-dichlorophenyl)-4-hydroxythiophen-3-yl]ethylidenehydrazinocarbonyl}thiophene-2-carboxylic acid 3-(pyridin-4-yl)propylamide] had a Megakaryocyte colony count of 70. For the compound `CC(=NNC(=O)c1ccc(C(=O)NCc2cncn2C)s1)c1csc(-c2ccc(C(F)(F)F)cc2)c1O` [Synthetic Ex. 41, 5-{1-[5-(4-trifluoromethylphenyl)-4-hydroxythiophen-3-yl]ethylidenehydrazinocarbonyl}thiophene-2-carboxylic acid (1-methyl-1H-imidazol-5-ylmethyl)amide], the Megakaryocyte colony count was found to be 41. Compound `CC(=NNC(=O)c1ccc(C(=O)N2CCC(O)C2)s1)c1csc(-c2ccc(Cl)c(Cl)c2)c1O` (centres unmarked) [Synthetic Ex. 42, 5-(3-hydroxypyrrolidine-1-carbonyl)thiophene-2-carboxylic acid {1-[5-(3,4-dichlorophenyl)-4-hydroxythiophen-3-yl]ethylidene}hydrazide] returned a Megakaryocyte colony count of 90. In the case of `CC(=NNC(=O)c1ccc(C(=O)N2CCC(O)C2)s1)c1csc(-c2ccc(C(F)(F)F)cc2)c1O` (centres unmarked) [Synthetic Ex. 43, 5-(3-hydroxypyrrolidine-1-carbonyl)thiophene-2-carboxylic acid {1-[5-(4-trifluoromethylphenyl)-4-hydroxythiophen-3-yl]ethylidene}hydrazide], the Megakaryocyte colony count was 109.

Still in this experiment, the particulars now being: drug concentration 1 μg/mL, 11 days.
`CC(=NNC(=O)c1ccc(C(=O)NCc2ccno2)s1)c1csc(-c2ccc(Cl)c(Cl)c2)c1O` [Synthetic Ex. 35, 5-{1-[5-(3,4-dichlorophenyl)-4-hydroxythiophen-3-yl]ethylidenehydrazinocarbonyl}thiophene-2-carboxylic acid (isoxazol-5-ylmethyl)amide] showed a Megakaryocyte colony count of 153. As for `COc1cc(CNC(=O)c2ccc(C(=O)NN=C(C)c3csc(-c4ccc(Cl)c(Cl)c4)c3O)s2)on1` [Synthetic Ex. 36, 5-{1-[5-(3,4-dichlorophenyl)-4-hydroxythiophen-3-yl]ethylidenehydrazinocarbonyl}thiophene-2-carboxylic acid (3-methoxyisoxazol-5-ylmethyl)amide], the Megakaryocyte colony count is 135.
